# Assay: Hydrogen peroxide retention after desiccation and rehydration (peroxide check strips)
# Format: physicochemical
# Conditions: 1-10 g extract in 20 ml 35% hydrogen peroxide, heated at 80° C. to 5 ml, rehydrated; colorimetric strips
smiles,measurement,value
"Oc1ccc(C=Cc2cc(O)cc(O)c2)cc1 [resveratrol, Resveratrol]",peroxide retention capability,relatively less ability to form stable perhydrates

# Source: patent publication US9192635B2
